According to US9206200B2, “N-linked lactam M1 receptor positive allosteric mogulators” (Merck Sharp & Dohme Corp., priority 2011, dated 2015):
pEC50: −log10 of the molar value. Read-outs that look alike come from different tables or passages of the source.

Biological target: T1, acetylcholine muscarinic M1 receptor (Homo sapiens, UniProt P11229)
T1 construct: expressed in transfected cells; host or cells: CHOnfat cells (CHO cells with an NFAT reporter) expressing hM1, kept under Geneticin selection
T1 sequence (P11229 1-460): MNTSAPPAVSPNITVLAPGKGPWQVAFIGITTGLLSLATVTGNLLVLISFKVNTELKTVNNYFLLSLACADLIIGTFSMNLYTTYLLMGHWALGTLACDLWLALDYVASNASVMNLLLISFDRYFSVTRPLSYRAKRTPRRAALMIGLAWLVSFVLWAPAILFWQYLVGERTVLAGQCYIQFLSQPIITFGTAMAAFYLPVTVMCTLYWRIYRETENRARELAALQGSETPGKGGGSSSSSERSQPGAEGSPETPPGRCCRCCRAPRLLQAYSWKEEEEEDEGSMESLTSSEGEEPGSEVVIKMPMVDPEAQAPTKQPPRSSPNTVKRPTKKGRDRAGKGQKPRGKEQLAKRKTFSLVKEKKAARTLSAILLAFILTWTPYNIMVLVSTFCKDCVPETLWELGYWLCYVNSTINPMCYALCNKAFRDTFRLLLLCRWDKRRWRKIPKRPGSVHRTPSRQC
Experiment: muscarinic FLIPR assay: intracellular calcium in CHOnfat/hM1 cells, potentiation of EC20 acetylcholine
Format: cell-based
Conditions: Table 2, CHOnfat/hM1 cells, FLIPR, EC20 acetylcholine (3 nM final)
How it was run: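 CHOnfat cells stably expressing human M1, Fluo-4AM-loaded, in HBSS with 20 mM HEPES, 2.5 mM probenecid, 1% BSA. Compounds preincubated 4 min (printed "4 mM") before an EC20 acetylcholine challenge (3 nM final). FLIPR intracellular Ca²⁺ signal compared with 3 nM acetylcholine alone to detect potentiation.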

| Structure (SMILES) | pEC50 (read-out: M1 Pot.) | pEC50 (M1 Pot.) |
| --- | --- | --- |
| O=C1c2cc(CN3CCCC3)c3cccnc3c2CN1C1CCCCC1O (centres unmarked) [Example 97, 8-(2-hydroxycyclohexyl)-5-(pyrrolidin-1-ylmethyl)-8,9-dihydro-7H-pyrrolo[3,4-h]quinolin-7-one] | 5.28 |  |
| O=C1c2cc(CN3CCC(F)(F)C3)c3cccnc3c2CN1C1CCCCC1O (centres unmarked) [Example 98, 5-[(3,3-difluoropyrrolidin-1-yl)methyl]-8-(2-hydroxycyclohexyl)-8,9-dihydro-7H-pyrrolo[3,4-h]quinolin-7-one] | 6.82 |  |
| O=C1c2cc(CN3CCOCC3)c3cccnc3c2CN1C1CCCCC1O (centres unmarked) [Example 99, 8-(2-hydroxycyclohexyl)-5-(morpholin-4-ylmethyl)-8,9-dihydro-7H-pyrrolo[3,4-h]quinolin-7-one] | 6.82 |  |
| CC1(C)CCN(Cc2cc3c(c4ncccc24)CN(C2CCCCC2O)C3=O)CC1 (centres unmarked) [Example 100, 5-[(4,4-dimethylpiperidin-1-yl)methyl]-8-(2-hydroxycyclohexyl)-8,9-dihydro-7H-pyrrolo[3,4-h]quinolin-7-one] | 6.37 |  |
| CC1(O)CCN(Cc2cc3c(c4ncccc24)CN(C2CCCCC2O)C3=O)CC1 (centres unmarked) [Example 101, 8-(2-hydroxycyclohexyl)-5-[(4-hydroxy-4-methylpiperidin-1-yl)methyl]-8,9-dihydro-7H-pyrrolo[3,4-h]quinolin-7-one] | 6.03 |  |
| CC1(F)CCN(Cc2cc3c(c4ncccc24)CN([C@H]2CCCC[C@@H]2O)C3=O)CC1 [Example 102, 5-[(4-fluoro-4-methylpiperidin-1-yl)methyl]-8-[(1S,2S)-2-hydroxycyclohexyl]-8,9-dihydro-7H-pyrrolo[3,4-h]quinolin-7-one] | 6.60 |  |
| CC1c2c(cc(CN3CCC(F)(F)CC3)c3cccnc23)C(=O)N1[C@@H]1COCC[C@@H]1O (stereo partly drawn) [Example 106, 1,5-anhydro-2,4-dideoxy-4-{5-[(4,4-difluoropiperidin-1-yl)methyl]-9-methyl-7-oxo-7,9-dihydro-8H-pyrrolo[3,4-h]quinolin-8-yl}-D-erythro-pentitol] | 6.96 |  |
| CCCC#CC1(F)CCN(Cc2cc3c(c4ncccc24)CN([C@H]2CCCC[C@@H]2O)C3=O)CC1 [Example 125, 5-[(4-fluoro-4-pent-1-yn-1-ylpiperidin-1-yl)methyl]-8-[(1S,2S)-2-hydroxycyclohexyl]-8,9-dihydro-7H-pyrrolo[3,4-h]quinolin-7-one] | 6.89 |  |
| C#CC1(F)CCN(Cc2cc3c(c4ncccc24)CN(c2cccc(O)c2)C3=O)CC1 [Example 128, 5-[(4-ethynyl-4-fluoropiperidin-1-yl)methyl]-8-(3-hydroxyphenyl)-8,9-dihydro-7H-pyrrolo[3,4-h]quinolin-7-one] | 6.07 |  |
| CN(C)C(=O)Oc1cccc(N2Cc3c(cc(CN4CCC(F)(C#N)CC4)c4cccnc34)C2=O)c1 [Example 129, 3-{5-[(4-cyano-4-fluoropiperidin-1-yl)methyl]-7-oxo-7,9-dihydro-8H-pyrrolo[3,4-h]quinolin-8-yl}phenyl dimethyl carbamate] |  | 5.66 |
| C#CC1(F)CCN(Cc2cc3c(c4ncccc24)CN(c2cccc(OC(=O)N(C)C)c2)C3=O)CC1 [Example 130, 3-{5-[(4-ethynyl-4-fluoropiperidin-1-yl)methyl]-7-oxo-7,9-dihydro-8H-pyrrolo[3,4-h]quinolin-8-yl}phenyl dimethylcarbamate] |  | 5.85 |
| O=C1c2cc(CN3CCC(F)(C#CC4CC4)CC3)c3cccnc3c2CN1[C@H]1CCCC[C@@H]1O [Example 132, 5-{[4-(cyclopropylethynyl)-4-fluoropiperidin-1-yl]methyl}-8-[(1S,2S)-2-hydroxycyclohexyl]-8,9-dihydro-7H-pyrrolo[3,4-h]quinolin-7-one] | 6.61 |  |
| O=C1c2cc(CN3CCC(F)(C#Cc4ccc(F)cc4)CC3)c3cccnc3c2CN1C1CCCCC1O (centres unmarked) [Example 133, 5-({4-fluoro-4-[(4-fluorophenyl)ethynyl]piperidin-1-yl}methyl)-8-(2-hydroxycyclohexyl)-8,9-dihydro-7H-pyrrolo[3,4-h]quinolin-7-one] | 6.89 |  |
| O=C1c2cc(CN3CCC(F)(Cc4ccccc4)CC3)c3cccnc3c2CN1C1CCCCC1O (centres unmarked) [Example 134, 5-[(4-benzyl-4-fluoropiperidin-1-yl)methyl]-8-(2-hydroxycyclohexyl)-8,9-dihydro-7H-pyrrolo[3,4-h]quinolin-7-one] | 6.68 |  |
| N#CC1(Cc2ccncc2)CCN(Cc2cc3c(c4ncccc24)CN(C2CCCCC2O)C3=O)CC1 (centres unmarked) [Example 135, 1-{[8-(2-hydroxycyclohexyl)-7-oxo-8,9-dihydro-7H-pyrrolo[3,4-h]quinolin-5-yl]methyl}-4-(pyridin-4-ylmethyl)piperidine-4-carbonitrile] | 6.81 |  |
| N#CC1(c2ccccc2)CCN(Cc2cc3c(c4ncccc24)CN([C@H]2CCCC[C@@H]2O)C3=O)CC1 [Example 136, 1-({8-[(1S,2S)-2-hydroxycyclohexyl]-7-oxo-8,9-dihydro-7H-pyrrolo[3,4-h]quinolin-5-yl}methyl)-4-phenylpiperidine-4-carbonitrile] | 7.85 |  |

The remaining molecules from weak to strong by pEC50 (read-out: M1 Pot.), led by results:

| pEC50 (read-out: M1 Pot.) | Structure (SMILES) | pEC50 (M1 Pot.) |
| --- | --- | --- |
| 6.97 | O=C1c2cc(CN3CCCC(F)C3)c3cccnc3c2CN1C1CCCCC1O (centres unmarked) [Example 121, 5-[(3-fluoropiperidin-1-yl)methyl]-8-(2-hydroxycyclohexyl)-8,9-dihydro-7H-pyrrolo[3,4-h]quinolin-7-one] |  |
| 7.01 | O=C1c2cc(CN3CCC(C(F)(F)F)CC3)c3cccnc3c2CN1C1CCCCC1O (centres unmarked) [Example 123, 8-(2-hydroxycyclohexyl)-5-{[4-(trifluoromethyl)piperidin-1-yl]methyl}-8,9-dihydro-7H-pyrrolo[3,4-h]quinolin-7-one] |  |
| 7.07 | O=C1c2cc(CN3CCCC(F)(F)C3)c3cccnc3c2CN1C1CCCCC1O (centres unmarked) [Example 122, 5-[(3,3-difluoropiperidin-1-yl)methyl]-8-(2-hydroxycyclohexyl)-8,9-dihydro-7H-pyrrolo[3,4-h]quinolin-7-one] |  |
| 7.36 | C#CC1CCN(Cc2cc3c(c4ncccc24)CN(C2CCCCC2O)C3=O)CC1 (centres unmarked) [Example 124, 5-[(4-ethynylpiperidin-1-yl)methyl]-8-(2-hydroxycyclohexyl)-8,9-dihydro-7H-pyrrolo[3,4-h]quinolin-7-one] |  |
| 7.36 | N#CC1(F)CCN(Cc2cc3c(c4ncccc24)CN(c2cccc(O)c2)C3=O)CC1 [Example 127, 4-fluoro-1-{[8-(3-hydroxyphenyl)-7-oxo-8,9-dihydro-7H-pyrrolo[3,4-h]quinolin-5-yl]methyl}piperidine-4-carbonitrile] |  |
| 7.42 | N#CC1(F)CCN(Cc2cc3c(c4ncccc24)CN([C@H]2CCCC[C@@H]2O)C3=O)CC1 [Example 117, 4-fluoro-1-({8-[(1S,2S)-2-hydroxycyclohexyl]-7-oxo-8,9-dihydro-7H-pyrrolo[3,4-h]quinolin-5-yl}methyl)piperidine-4-carbonitrile] |  |
| 7.48 | CC#CC1(F)CCN(Cc2cc3c(c4ncccc24)CN([C@H]2CCCC[C@@H]2O)C3=O)CC1 [Example 131, 5-[(4-fluoro-4-prop-1-yn-1-ylpiperidin-1-yl)methyl]-8-[(1S,2S)-2-hydroxycyclohexyl]-8,9-dihydro-7H-pyrrolo[3,4-h]quinolin-7-one] |  |
| 7.68 | O=C1c2cc(CN3CCC(F)(F)CC3)c3cccnc3c2CN1C1CCCCC1O (centres unmarked) [Example 116, 5-[(4,4-difluoropiperidin-1-yl)methyl]-8-(2-hydroxycyclohexyl)-8,9-dihydro-7H-pyrrolo[3,4-h]quinolin-7-one] |  |
| 7.68 | CCC1c2c(cc(CN3CCC(F)(C#N)CC3)c3cccnc23)C(=O)N1[C@@H]1CCCC[C@@H]1O (stereo partly drawn) [Example 120, 1-({9-ethyl-8-[(1R,2S)-2-hydroxycyclohexyl]-7-oxo-8,9-dihydro-7H-pyrrolo[3,4-h]quinolin-5-yl}methyl)-4-fluoropiperidine-4-carbonitrile] |  |
| 7.82 | CC1c2c(cc(CN3CCC(F)(F)CC3)c3cccnc23)C(=O)N1[C@@H]1CCCC[C@@H]1O (stereo partly drawn) [Example 104, 5-[(4,4-difluoropiperidin-1-yl)methyl]-8-[(1R,2S)-2-hydroxycyclohexyl]-9-methyl-8,9-dihydro-7H-pyrrolo[3,4-h]quinolin-7-one] |  |
| 7.92 | CC1c2c(cc(CN3CCC(F)(F)CC3)c3cccnc23)C(=O)N1[C@@H]1CCOC[C@@H]1O (stereo partly drawn) [Example 107, 1,5-anhydro-3,4-dideoxy-3-{5-[(4,4-difluoropiperidin-1-yl)methyl]-9-methyl-7-oxo-7,9-dihydro-8H-pyrrolo[3,4-h]quinolin-8-yl}-D-erythro-pentitol] |  |
| 7.96 | C#CC1(F)CCN(Cc2cc3c(c4ncccc24)CN([C@H]2CCCC[C@@H]2O)C3=O)CC1 [Example 103, 5-[(4-ethynyl-4-fluoropiperidin-1-yl)methyl]-8-[(1S,2S)-2-hydroxycyclohexyl]-8,9-dihydro-7H-pyrrolo[3,4-h]quinolin-7-one] |  |
| 8.00 | CCC1c2c(cc(CN3CCC(F)(F)CC3)c3cccnc23)C(=O)N1[C@@H]1CCCC[C@@H]1O (stereo partly drawn) [Example 105, 5-[(4,4-difluoropiperidin-1-yl)methyl]-9-ethyl-8-[(1R,2S)-2-hydroxycyclohexyl]-8,9-dihydro-7H-pyrrolo[3,4-h]quinolin-7-one] |  |
